Several values for one entry are separate records, joined by “and”; a condition that tells them apart may be missing. Equal entries are not always repeated.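 Protocol summary: plate cells (96-well), add compound at 5 concentrations, incubate 48 h, interpolate endpoints linearly. Abbreviation: GI50, concentration required for 50% inhibition of growth. At the TGI there is no net growth.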
Key:
Test in all cases: DTP human tumour cell line panel, 48 h
K-562 leukemia = tested on: K-562 leukemia
DMS 273 small cell lung = tested on: DMS 273 small cell lung
SNB-75 CNS = tested on: SNB-75 CNS
CAKI-1 renal = tested on: CAKI-1 renal
SNB-19 CNS = tested on: SNB-19 CNS
SN12C renal = tested on: SN12C renal
ACHN renal = tested on: ACHN renal
A498 renal = tested on: A498 renal
M19-MEL melanoma = tested on: M19-MEL melanoma
PC-3 prostate = tested on: PC-3 prostate

Structure (SMILES)	TGI (K-562 leukemia)	TGI (DMS 273 small cell lung)	TGI (SNB-75 CNS)	TGI (CAKI-1 renal)	TGI (SNB-19 CNS)	GI50 (SN12C renal)	TGI (SN12C renal)	GI50 (ACHN renal)	TGI (ACHN renal)	TGI (A498 renal)	TGI (M19-MEL melanoma)	TGI (PC-3 prostate)	GI50 (K-562 leukemia)	GI50 (CAKI-1 renal)	GI50 (SNB-75 CNS)	GI50 (M19-MEL melanoma)
COc1cc(C2c3cc4c(cc3[C@@H](NCCN3CCOCC3)C3COC(=O)[C@H]23)OCO4)cc(OC)c1O (stereo partly specified)	> 75 µM	7.72 µM and 5.44 µM	1.8 µM and 11.6 µM	> 75 µM	> 75 µM	0.764 µM and 2.13 µM	4.06 µM and 7.9 µM	0.264 µM and 0.679 µM	1.34 µM and 2.84 µM	–	–	–	–	–	–	–
COc1ccc2nc3cc(Cl)ccc3c(SCC(=O)Nc3ccccc3-c3ccccc3NC(=O)CSc3c4ccc(Cl)cc4nc4ccc(OC)cc34)c2c1	> 100 µM	> 100 µM	> 100 µM	> 100 µM	> 100 µM	–	> 100 µM	–	> 100 µM	> 100 µM	> 100 µM	–	–	–	–	–
Cc1ccc(C(=O)N/N=C(\N=Nc2ccc(C(=O)O)cc2)c2ccc(N(CCC#N)CCC#N)cc2C)cc1	> 100 µM	–	> 100 µM	> 100 µM	> 100 µM	–	> 100 µM	–	> 100 µM	> 100 µM	–	> 100 µM	–	–	–	–
O=CN1CCN(C(=O)c2ccc(Cl)c(Cl)c2)C1=S	> 100 µM	–	32.3 µM	28.1 µM	31.7 µM	–	27.8 µM	–	31.6 µM	29.8 µM	–	31.9 µM	–	–	–	–
O=C(N/N=C(/COc1ccccc1)N=Cc1cccnc1)c1ccncc1	> 100 µM	–	> 100 µM	> 100 µM	> 100 µM	–	> 100 µM	–	> 100 µM	> 100 µM	–	> 100 µM	–	–	–	–
CCCCCCCCC/C=C1\CCC(CN(C)C)C1=O (stereo unspecified)	7.53 µM	3.25 µM	6.28 µM	4.99 µM	18.1 µM	–	4.34 µM	–	4.98 µM	6.4 µM	3.87 µM	–	–	–	–	–
CCOc1ccc(N/C(=C(/C(Cl)=C(/Cl)NC(C)(C)C)[N+](=O)[O-])n2nnc3ccccc32)cc1	> 100 µM	–	54 µM	35.3 µM	> 100 µM	–	> 100 µM	–	> 100 µM	> 100 µM	–	83.5 µM	–	–	–	–
OC1CSc2nc3ccccc3n2C1 (stereo unspecified)	> 100 µM	–	44.8 µM	> 100 µM	> 100 µM	–	> 100 µM	–	> 100 µM	> 100 µM	–	> 100 µM	–	–	–	–
CC(C)N(C(C)C)S(=O)(=O)C[C@]12CC[C@H](CC13OCC(CS(=O)(=O)c1ccccc1)O3)C2(C)C (stereo partly specified)	> 100 µM	–	> 100 µM	> 100 µM	> 100 µM	–	> 100 µM	–	> 100 µM	> 100 µM	–	> 100 µM	–	–	–	–
ON=C(CC(O)(C(F)(F)Cl)C(F)(F)Cl)CC(O)(C(F)(F)Cl)C(F)(F)Cl	> 10 µM	–	> 10 µM	> 10 µM	> 10 µM	–	> 10 µM	–	> 10 µM	> 10 µM	–	> 10 µM	–	–	–	–
O=C1CC(=O)NC(=NNS(=O)(=O)c2ccc(Cl)cc2)N1	> 100 µM	–	> 100 µM	> 100 µM	> 100 µM	–	> 100 µM	–	> 100 µM	> 100 µM	–	> 100 µM	–	–	–	–
CCCCCCCCCCCCCCCCCCOCC(O)COP(=O)(O)OCC1OC(n2ccc(N)nc2=O)C(O)C1O (stereo unspecified)	> 100 µM	–	28.7 µM	75 µM	24.6 µM	–	> 100 µM	–	> 100 µM	40.6 µM	–	20.7 µM	–	–	–	–
Cc1ccc(Nc2nc3c(=O)n(C)c(=O)n(C)c3nc2Nc2ccc(C)cc2)cc1	> 100 µM	–	35.2 µM	30.4 µM	> 100 µM	–	30.5 µM	–	11.8 µM	40.2 µM	–	27.9 µM	–	–	–	–
CCO/C=N/C1=C(C#N)SC2=N/C(=C\c3ccccc3)C(=O)N21	> 80.4 µM	–	> 100 µM	> 100 µM	> 100 µM	–	> 100 µM	–	> 100 µM	> 100 µM	–	> 100 µM	–	–	–	–
CC(=O)N(C(C)=O)c1cc2c3c(c1)CCCN3CCC2	> 10 µM	–	> 10 µM	> 10 µM	> 10 µM	–	> 10 µM	–	> 10 µM	> 10 µM	–	> 10 µM	–	–	–	–
BrCC[N+]12CC[N+](CCBr)(CC1)C2	> 100 µM	–	> 100 µM	> 100 µM	> 100 µM	–	> 100 µM	–	> 100 µM	> 100 µM	–	> 100 µM	–	–	–	–
Fc1ccc(C(OCCN2CC3CCC(C2)N3CCCc2ccccc2)c2ccc(F)cc2)cc1	4.99 µM	–	17 µM	19.1 µM	22.1 µM	–	13.6 µM	–	22.4 µM	17.7 µM	–	10.4 µM	–	–	–	–
Cc1cccc(N/C(Sc2ccccc2)=C(/C(Cl)=C(Cl)Cl)[N+](=O)[O-])c1	57.8 µM	–	68 µM	37.3 µM	> 100 µM	–	35.1 µM	–	74.9 µM	40.6 µM	–	> 100 µM	–	–	–	–
CN(C)c1ccc(C=C2C(=O)NC(=S)NC2=O)c2ccccc12	> 100 µM	–	> 100 µM	> 100 µM	> 100 µM	–	> 100 µM	–	> 100 µM	> 100 µM	–	> 100 µM	–	–	–	–
CC(Oc1ccc(OCC2CCCCC2)cc1)C(=O)NCc1ccco1 (stereo unspecified)	> 100 µM	94.1 µM	> 100 µM	–	> 100 µM	–	> 100 µM	–	> 100 µM	86.7 µM	> 100 µM	–	–	–	–	–

Structure (SMILES)	TGI (K-562 leukemia)	TGI (DMS 273 small cell lung)	TGI (SNB-75 CNS)	TGI (CAKI-1 renal)	TGI (SNB-19 CNS)	GI50 (SN12C renal)	TGI (SN12C renal)	GI50 (ACHN renal)	TGI (ACHN renal)	TGI (A498 renal)	TGI (M19-MEL melanoma)	TGI (PC-3 prostate)	GI50 (K-562 leukemia)	GI50 (CAKI-1 renal)	GI50 (SNB-75 CNS)	GI50 (M19-MEL melanoma)
Cc1nc2sccn2c1/C=C1/C(=O)Nc2cccc(Cl)c21	> 100 µM	–	> 100 µM	> 100 µM	> 100 µM	–	> 100 µM	–	> 100 µM	> 100 µM	–	> 100 µM	–	–	–	–
O=C1CC(NCc2ccccc2)c2c(Cl)sc(Cl)c21 (stereo unspecified)	> 100 µM	–	80.6 µM	53 µM	> 100 µM	–	58 µM	–	52.8 µM	> 100 µM	–	43 µM	–	–	–	–
NS(=O)(=O)c1ccc(/C=C/c2ccc(O)cc2)cc1	> 100 µM	–	78.6 µM	32.6 µM	> 100 µM	–	> 100 µM	2.28 µM	7.75 µM	> 100 µM	–	97.7 µM	24.9 µM	5.59 µM	–	–
NC(=O)NC12CC3CC(CC(F)(C3)C1)C2	> 100 µM	> 100 µM	> 100 µM	–	> 100 µM	–	–	–	> 100 µM	> 100 µM	> 100 µM	–	–	–	–	–
O=C(c1ccccc1)N1C(=S)N(c2ccccn2)C(=Nc2ccccc2)C1=Nc1ccccc1	> 60.9 µM	–	> 100 µM	43.8 µM	> 96.2 µM	–	> 100 µM	–	35.3 µM	> 100 µM	–	35.8 µM	–	–	–	–
CCOP(=O)(OCC)OC1c2[nH]cc(C(=O)OCc3ccccc3)c2-c2cc(C(=O)OC)[nH]c2C1OC (stereo unspecified)	> 100 µM	–	56.2 µM	> 100 µM	> 100 µM	–	> 100 µM	–	30.5 µM	> 100 µM	–	> 100 µM	–	–	–	–
CC(=O)O[C@H]1CCC2[C@@H]3CCC4c5nonc5CC[C@]4(C)C3CC[C@@]21C (stereo partly specified)	> 100 µM	> 10 µM	> 100 µM	> 10 µM	> 10 µM	–	> 10 µM	> 10 µM	> 100 µM	> 10 µM	> 100 µM	–	> 100 µM	–	> 10 µM	> 100 µM
COc1cc2c(c(OC)c1OC)-c1ccc(SC)cc1C(O)CC2 (stereo unspecified)	< 0.01 µM	–	34.7 µM	15.7 µM	> 100 µM	–	23.6 µM	–	> 100 µM and 97.9 µg/mL	> 100 µM and 0.0742 µg/mL	–	> 100 µM and 63.9 µg/mL	–	–	43.5 µg/mL	–
COC(=O)/C=C1/OC(c2ccc(OC)cc2)=C(Cl)C1=O	11.3 µM	–	37.3 µM	27 µM	52.8 µM	–	40.4 µM	–	31.8 µM	49.1 µM	–	28.9 µM	–	–	–	–
ClCCCCCc1c2nc(c(CCCCCCl)c3ccc([nH]3)c(CCCCCCl)c3ccc([nH]3)c(CCCCCCl)c3nc1C=C3)C=C2	> 100 µM	–	> 100 µM	> 100 µM	> 100 µM	–	> 100 µM	–	> 100 µM	> 100 µM	–	> 100 µM	–	–	–	–
CCOC(=O)C(Cl)(NC(=O)OCc1ccccc1)C(F)(F)F (stereo unspecified)	> 100 µM	–	> 100 µM	> 100 µM	> 100 µM	–	> 100 µM	–	> 100 µM	> 100 µM	–	> 100 µM	–	–	–	–
CC(C)Oc1c(-c2ccc(F)cc2)c(O)c2c3c1oc(=O)n3C=CC2C (stereo unspecified)	39.6 µM	–	31.3 µM	27.5 µM	31.9 µM	–	23.8 µM	–	27.6 µM	28.2 µM	–	31.7 µM	–	–	–	–
O=C(c1cc2c(c3ccccc13)NC1(CCCCC1)N=C2C(F)(F)F)C(F)(F)F	16.8 µM	–	19.1 µM	13.1 µM	18.7 µM	–	13.2 µM	–	13.8 µM	20.8 µM	–	12.4 µM	–	–	–	–
CC(=O)OC(Cc1c(O)c2c(C)cccc2oc1=O)C(C)(C)O (stereo unspecified)	> 100 µM	–	> 100 µM	> 100 µM	> 100 µM	–	> 100 µM	–	> 100 µM	> 100 µM	–	> 100 µM	–	–	–	–
CC(=O)OC(C)(C)CCC(=O)[C@](C)(O)[C@H]1[C@H](O)C[C@@]2(C)[C@@H]3CCc4c(cc(OC5OC(CO)C(O)C(O)C5O)c(O)c4C)C3(C)C(=O)C[C@]12C (stereo partly specified)	> 100 µM	–	> 100 µM	> 100 µM	> 100 µM	–	> 100 µM	–	> 100 µM	> 100 µM	–	> 100 µM	–	–	–	–
O=C(N/N=C/c1ccccc1)c1cccc2nc3ccccc3nc12	> 100 µM	–	> 100 µM	> 100 µM	> 100 µM	–	> 100 µM	–	> 100 µM	> 100 µM	–	> 100 µM	–	–	–	–
CC1=C(C(=O)N[C@@H](CC(C)C)C(=O)O)N2C(=O)[C@@H](NC(=O)C(N)c3ccccc3)[C@H]2SC1 (stereo partly specified)	> 100 µM	–	> 100 µM	> 100 µM	> 100 µM	–	> 100 µM	–	> 100 µM	> 100 µM	–	> 100 µM	–	–	–	–
Nc1nc(-c2ccco2)cc(-c2ccc(CO)o2)n1	> 100 µM	> 100 µM	> 100 µM	–	> 100 µM	–	> 100 µM	–	> 100 µM	–	> 100 µM	–	–	–	–	–
N#CNC(=NCCc1c[nH]c2ccccc12)Oc1ccccc1	> 100 µM	> 100 µM	> 100 µM	–	> 100 µM	–	> 100 µM	–	> 100 µM	–	> 100 µM	–	–	–	–	–
